Patent US12606541B2, “PPARg modulators and methods of use” (Eisai R&D Management Co., Ltd., priority 2020, dated 2026)

Target: T1, His6-TEV-PPARγ-(234-505) (Homo sapiens, UniProt P37231)
T1 construct: The His6-TEV-PPARγ-(234-505) protein for assay was expressed and purified; TEV cleavage site (N); made in house
T1 sequence (P37231 234-505): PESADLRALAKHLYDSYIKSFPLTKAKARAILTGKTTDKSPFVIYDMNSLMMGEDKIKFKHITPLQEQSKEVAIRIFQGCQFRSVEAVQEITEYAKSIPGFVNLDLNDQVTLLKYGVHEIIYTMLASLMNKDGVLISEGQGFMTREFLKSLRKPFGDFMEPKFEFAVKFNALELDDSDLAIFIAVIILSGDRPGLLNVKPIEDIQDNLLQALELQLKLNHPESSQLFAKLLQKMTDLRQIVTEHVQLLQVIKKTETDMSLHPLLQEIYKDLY
Test: TR-FRET Assay to Measure Co-R Peptide Recruitment to PPARγ
Type: biochemical
Details: Co-R peptide recruitment to PPARγ; read-out: TR-FRET AC50
Experimental: TR-FRET Assay to Measure Co—R Peptide Recruitment to PPARγ
The 2× detection solution contained anti-6×His-Terbium antibody (CisBio) and FITC labeled Co—R peptide (SMRT-ID2 from New England Peptide) at final concentrations of 5 and 200 nM respectively.
In these assay plates, the positive control in column 24 contained 500 nM (final) T0070907 and the negative control in column 23 contained an identical volume of DMSO. Then, 5 μL of 2+ protein working stock or controls were added to the plate and incubated for 20 minutes at room temperature. Reagents additions were performed with either a Combi (Thermo) or Mantis (Formulatory) pipetting device. The incubation was followed by addition of 5 μL of the 2× detection solution. Plates were covered, centrifuged, and incubated for an additional hour. The TR-FRET data was recorded with an Envision plate reader (Perkin Elmer), using settings recommended by Thermo Fisher. The TR-FRET signal of the positive and negative control's recruitment of FITC-Co—R peptide was used to normalize the TR-FRET signal to percent response and to determine the assay Z prime. Experiments were performed in triplicate and analyzed in GraphPad Prism 7.

AC50, > 1000 nM:
CC1CCC(NC(=O)C2CCN(C(=O)c3cc(-c4ccnc(C5CC5)c4)[nH]n3)CC2)CC1 (stereo not shown) [1-[5-(2-cyclopropylpyridin-4-yl)-1H-pyrazole-3-carbonyl]-N-(4-methylcyclohexyl)piperidine-4-carboxamide]
COc1nccc(-c2cc(C(=O)N3CCC(C(=O)NC4CCC(C)CC4)CC3)n[nH]2)c1C (stereo not shown) [1-[5-(2-methoxy-3-methylpyridin-4-yl)-1H-pyrazole-3-carbonyl]-N-(4-methylcyclohexyl)piperidine-4-carboxamide]
COc1cc(-c2cc(C(=O)N3CCC(C)(C(=O)NC4CCC(C)CC4)CC3)n[nH]2)ccn1 (stereo not shown) [1-[5-(2-methoxypyridin-4-yl)-1H-pyrazole-3-carbonyl]-4-methyl-N-(4-methylcyclohexyl)piperidine-4-carboxamide]
COc1cc(-c2cc(C(=O)N3CCC(C(=O)NC4CCC(=O)CC4)CC3)n[nH]2)ccn1 [1-[5-(2-methoxypyridin-4-yl)-1H-pyrazole-3-carbonyl]-N-(4-oxocyclohexyl)piperidine-4-carboxamide]
CC1CCC(NC(=O)C2CCN(C(=O)c3cc(-c4ccncc4C#N)[nH]n3)CC2)CC1 (stereo not shown) [1-[5-(3-cyanopyridin-4-yl)-1H-pyrazole-3-carbonyl]-N-(4-methylcyclohexyl)piperidine-4-carboxamide]
CC1CCC(NC(=O)C2CCN(C(=O)c3cc(-c4ccncc4F)[nH]n3)CC2)CC1 (stereo not shown) [1-[5-(3-fluoropyridin-4-yl)-1H-pyrazole-3-carbonyl]-N-(4-methylcyclohexyl)piperidine-4-carboxamide]
COc1cc(-c2cc(C(=O)N3CCC(C(=O)NC4CCS(=O)(=O)c5ccccc54)CC3)n[nH]2)c(Cl)cn1 (stereo not shown) [1-[5-(5-chloro-2-methoxypyridin-4-yl)-1H-pyrazole-3-carbonyl]-N-(1,1-dioxo-3,4-dihydro-2H-1λ^6-benzothiopyran-4-yl)piperidine-4-carboxamide]
COc1cc(-c2cc(C(=O)N3CCC(C(=O)NC4COCOC4)CC3)n[nH]2)c(Cl)cn1 [1-[5-(5-chloro-2-methoxypyridin-4-yl)-1H-pyrazole-3-carbonyl]-N-(1,3-dioxan-5-yl)piperidine-4-carboxamide]
COc1cc(-c2cc(C(=O)N3CCC(C(=O)Nc4nc(C)cn4C)CC3)n[nH]2)c(Cl)cn1 [1-[5-(5-chloro-2-methoxypyridin-4-yl)-1H-pyrazole-3-carbonyl]-N-(1,4-dimethyl-1H-imidazol-2-yl)piperidine-4-carboxamide]
COc1cc(-c2cc(C(=O)N3CCC(C(=O)NC4CCN(C5CCC5)CC4)CC3)n[nH]2)c(Cl)cn1 [1-[5-(5-chloro-2-methoxypyridin-4-yl)-1H-pyrazole-3-carbonyl]-N-(1-cyclobutylpiperidin-4-yl)piperidine-4-carboxamide]
COc1cc(-c2cc(C(=O)N3CCC(C(=O)Nc4nc5ccccc5n4C)CC3)n[nH]2)c(Cl)cn1 [1-[5-(5-chloro-2-methoxypyridin-4-yl)-1H-pyrazole-3-carbonyl]-N-(1-methyl-1H-1,3-benzodiazol-2-yl)piperidine-4-carboxamide]
COc1cc(-c2cc(C(=O)N3CCC(C(=O)NC4COC(C)(C)OC4)CC3)n[nH]2)c(Cl)cn1 [1-[5-(5-chloro-2-methoxypyridin-4-yl)-1H-pyrazole-3-carbonyl]-N-(2,2-dimethyl-1,3-dioxan-5-yl)piperidine-4-carboxamide]
COc1cc(-c2cc(C(=O)N3CCC(C(=O)NC4CS(=O)(=O)Cc5ccccc54)CC3)n[nH]2)c(Cl)cn1 (stereo not shown) [1-[5-(5-chloro-2-methoxypyridin-4-yl)-1H-pyrazole-3-carbonyl]-N-(2,2-dioxo-3,4-dihydro-1H-2λ^6-benzothiopyran-4-yl)piperidine-4-carboxamide]
COc1cc(-c2cc(C(=O)N3CCC(C(=O)Nc4cccc(F)c4F)CC3)n[nH]2)c(Cl)cn1 [1-[5-(5-chloro-2-methoxypyridin-4-yl)-1H-pyrazole-3-carbonyl]-N-(2,3-difluorophenyl)piperidine-4-carboxamide]
COc1cc(F)c(NC(=O)C2CCN(C(=O)c3cc(-c4cc(OC)ncc4Cl)[nH]n3)CC2)c(F)c1 [1-[5-(5-chloro-2-methoxypyridin-4-yl)-1H-pyrazole-3-carbonyl]-N-(2,6-difluoro-4-methoxyphenyl)piperidine-4-carboxamide]
COc1cc(-c2cc(C(=O)N3CCC(C(=O)NC4c5ccccc5CC4O)CC3)n[nH]2)c(Cl)cn1 (stereo not shown) [1-[5-(5-chloro-2-methoxypyridin-4-yl)-1H-pyrazole-3-carbonyl]-N-(2-hydroxy-2,3-dihydro-1H-inden-1-yl)piperidine-4-carboxamide]
COc1cc(-c2cc(C(=O)N3CCC(C(=O)NC4CCCc5[nH]c(=O)ccc54)CC3)n[nH]2)c(Cl)cn1 (stereo not shown) [1-[5-(5-chloro-2-methoxypyridin-4-yl)-1H-pyrazole-3-carbonyl]-N-(2-oxo-1,2,5,6,7,8-hexahydroquinolin-5-yl)piperidine-4-carboxamide]
COc1cc(-c2cc(C(=O)N3CCC(C(=O)NC(C)(C)c4ccccc4)CC3)n[nH]2)c(Cl)cn1 [1-[5-(5-chloro-2-methoxypyridin-4-yl)-1H-pyrazole-3-carbonyl]-N-(2-phenylpropan-2-yl)piperidine-4-carboxamide]
COc1cc(-c2cc(C(=O)N3CCC(C(=O)NC4(C)CC(F)(F)C4)CC3)n[nH]2)c(Cl)cn1 [1-[5-(5-chloro-2-methoxypyridin-4-yl)-1H-pyrazole-3-carbonyl]-N-(3,3-difluoro-1-methylcyclobutyl)piperidine-4-carboxamide]
COc1cc(-c2cc(C(=O)N3CCC(C(=O)NC4CC(F)(F)C4)CC3)n[nH]2)c(Cl)cn1 [1-[5-(5-chloro-2-methoxypyridin-4-yl)-1H-pyrazole-3-carbonyl]-N-(3,3-difluorocyclobutyl)piperidine-4-carboxamide]
COc1cc(-c2cc(C(=O)N3CCC(C(=O)Nc4nc(C)cnc4C)CC3)n[nH]2)c(Cl)cn1 [1-[5-(5-chloro-2-methoxypyridin-4-yl)-1H-pyrazole-3-carbonyl]-N-(3,6-dimethylpyrazin-2-yl)piperidine-4-carboxamide]
COc1cc(-c2cc(C(=O)N3CCC(C(=O)NC4CCC(O)C4)CC3)n[nH]2)c(Cl)cn1 (stereo not shown) [1-[5-(5-chloro-2-methoxypyridin-4-yl)-1H-pyrazole-3-carbonyl]-N-(3-hydroxycyclopentyl)piperidine-4-carboxamide]
COc1cc(-c2cc(C(=O)N3CCC(C(=O)Nc4nccnc4O)CC3)n[nH]2)c(Cl)cn1 [1-[5-(5-chloro-2-methoxypyridin-4-yl)-1H-pyrazole-3-carbonyl]-N-(3-hydroxypyrazin-2-yl)piperidine-4-carboxamide]
COc1cc(-c2cc(C(=O)N3CCC(C(=O)NC4CCC(C#N)CC4)CC3)n[nH]2)c(Cl)cn1 (stereo not shown) [1-[5-(5-chloro-2-methoxypyridin-4-yl)-1H-pyrazole-3-carbonyl]-N-(4-cyanocyclohexyl)piperidine-4-carboxamide]
CCC1(O)CCC(NC(=O)C2CCN(C(=O)c3cc(-c4cc(OC)ncc4Cl)[nH]n3)CC2)CC1 (stereo not shown) [1-[5-(5-chloro-2-methoxypyridin-4-yl)-1H-pyrazole-3-carbonyl]-N-(4-ethyl-4-hydroxycyclohexyl)piperidine-4-carboxamide]
COc1cc(-c2cc(C(=O)N3CCC(C(=O)Nc4noc5cccc(F)c45)CC3)n[nH]2)c(Cl)cn1 [1-[5-(5-chloro-2-methoxypyridin-4-yl)-1H-pyrazole-3-carbonyl]-N-(4-fluoro-1,2-benzoxazol-3-yl)piperidine-4-carboxamide]
COc1cc(-c2cc(C(=O)N3CCC(C(=O)NC4CCC(C)(OC)CC4)CC3)n[nH]2)c(Cl)cn1 (stereo not shown) [1-[5-(5-chloro-2-methoxypyridin-4-yl)-1H-pyrazole-3-carbonyl]-N-(4-methoxy-4-methylcyclohexyl)piperidine-4-carboxamide]

Same assay, conditions: TR-FRET AC50, Co-R peptide recruitment to PPARγ

AC50, > 1000 nM:
COc1cc(-c2cc(C(=O)N3CCC(C(=O)NC(C)(C)c4ccccc4)CC3)n[nH]2)ccn1 [1-[5-(2-methoxypyridin-4-yl)-1H-pyrazole-3-carbonyl]-N-(2-phenylpropan-2-yl)piperidine-4-carboxamide]
